Reference: ChEMBL document CHEMBL1201862, “PubChem BioAssay data set” (2004)
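Dose response: 5 concentrations. Exposure: 48 h. Format: 96-well plates. Endpoint: linear interpolation; highest concentration if not reached. Here, GI50 denotes the concentration required for 50% inhibition of growth.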 Active and inactive are the calls of the source. Rule as the data show it: active = GI50 up to about 1.1 µM and inactive = higher.

Experiments:
Experiment in all cases: inhibition of tumour cell growth, NCI panel, 48 h
BT-549 = tested on: BT-549
Hs-578T = tested on: Hs-578T
MDA-MB-231 = tested on: MDA-MB-231
MDA-MB-435 = tested on: MDA-MB-435
MDA-N = tested on: MDA-N
PC-3 = tested on: PC-3
T47D = tested on: T47D

Measured: GI50

COC(Cc1cc(C(O)(c2ccc(C(C)(C)C)cc2)c2cc(CC(OC)(c3cc(C(OC)(c4ccc(C(C)(C)C)cc4)c4ccc(C(C)(C)C)cc4)c(C)cc3C)c3cc(C(OC)(c4ccc(C(C)(C)C)cc4)c4ccc(C(C)(C)C)cc4)c(C)cc3C)c(C)cc2C)c(C)cc1C)(c1cc(C(OC)(c2ccc(C(C)(C)C)cc2)c2ccc(C(C)(C)C)cc2)c(C)cc1C)c1cc(C(OC)(c2ccc(C(C)(C)C)cc2)c2ccc(C(C)(C)C)cc2)c(C)cc1C
inactive: BT-549 > 75 µM | Hs-578T > 75 µM | MDA-MB-231 > 75 µM | MDA-MB-435 > 75 µM | MDA-N > 75 µM | PC-3 > 75 µM | T47D > 75 µM

CC(=O)c1c(-c2ccco2)c(C#N)c(=S)n(C2OC(CO)C(O)C(O)C2O)c1C (stereo not drawn)
inactive: BT-549 > 100 µM | Hs-578T 64.9 µM | MDA-MB-231 > 100 µM | MDA-MB-435 36.4 µM | MDA-N 92.3 µM | PC-3 > 100 µM | T47D 35.5 µM

Cc1ccc([N+](=O)[O-])cc1S(=O)(=O)Nc1ccc(C2=NNC(c3ccccc3O)C2)cc1 (stereo not drawn)
inactive: BT-549 19.7 µM | Hs-578T 43.7 µM | MDA-MB-231 26.7 µM | MDA-MB-435 22.1 µM | MDA-N 28.6 µM | PC-3 29.4 µM | T47D 17.3 µM

O=c1c(C(c2ccccc2)c2c(O)oc3cc(O)ccc3c2=O)c(O)oc2cc(O)ccc12
inactive: BT-549 > 100 µM | Hs-578T > 100 µM | MDA-MB-231 > 100 µM | MDA-MB-435 > 100 µM | MDA-N > 100 µM | PC-3 > 100 µM | T47D > 100 µM
